Results reported in ChEMBL document CHEMBL4371047, “Effect of α-Methoxy Substitution on the Anti-HIV Activity of Dihydropyrimidin-4(3 H)-ones” (J Med Chem, 2019).
pEC50: −log10 of the molar value.

What was measured:
[1] = Therapeutic index, ratio of CC50 for human MT4 cells to EC50 for HIV-1 NL4-3 infected in human MT4 cells; type: toxicity, cell-based; conditions: read-out: Ratio CC50/EC50
[2] = Cytotoxicity against human MT4 cells assessed as reduction in cell viability after 5 days by MTT assay; type: cell-based
[3] = tested on: Human immunodeficiency virus 1; assay: Antiviral activity against HIV-1 harboring reverse transcriptase K103N mutant infected in human MT4 cells assessed as inhibition of virus-induced cytopathic effect after 5 days by MTT assay; type: functional, organism-based; conditions: Human immunodeficiency virus 1, MT4, 120 h
[4] = biological target: Human immunodeficiency virus type 1 reverse transcriptase (Human immunodeficiency virus 1) (UniProt Q72547)
Description: Inhibition of recombinant wild type HIV-1 His-tagged reverse transcriptase p66/p51 expressed in Escherichia coli assessed as reduction in [3H]dTTP incorporation using poly(rA)/oligo(dT) as template/primer after 20 mins by scintillation counting analysis

[5] = tested on: Human immunodeficiency virus type 1 reverse transcriptase (Human immunodeficiency virus 1), Q72547 [K103N]
Description: Inhibition of recombinant HIV-1 His-tagged reverse transcriptase p66/p51 K103N mutant expressed in Escherichia coli assessed as reduction in [3H]dTTP incorporation using poly(rA)/oligo(dT) as template/primer after 20 mins by scintillation counting analysis

[6] = tested on: Human immunodeficiency virus type 1 reverse transcriptase (Human immunodeficiency virus 1), Q72547 [L100I]
[7] = tested on: Human immunodeficiency virus 1; assay: Antiviral activity against wild type HIV 1 NL4-3 infected in human MT4 cells assessed as inhibition of virus-induced cytopathic effect after 5 days by MTT assay; type: functional, organism-based; conditions: Human immunodeficiency virus 1, NL4-3, MT4, 120 h
[8] = tested on: Human immunodeficiency virus 1; assay: Antiviral activity against HIV 1 harboring reverse transcriptase Y181C mutant infected in human MT4 cells assessed as inhibition of virus-induced cytopathic effect after 5 days by MTT assay; type: functional, organism-based; conditions: Human immunodeficiency virus 1, MT4, 120 h
[9] = tested on: Human immunodeficiency virus 1; assay: Antiviral activity against HIV-1 harboring reverse transcriptase Y188L mutant infected in human MT4 cells assessed as inhibition of virus-induced cytopathic effect after 5 days by MTT assay; type: functional, organism-based; conditions: Human immunodeficiency virus 1, MT4, 120 h
[10] = tested on: Human immunodeficiency virus 1; assay: Resistance index, ratio of EC50 for HIV-1 harboring reverse transcriptase Y181C mutant to EC50 for wild type HIV-1 NL4-3; type: functional
[11] = tested on: Human immunodeficiency virus 1; assay: Resistance index, ratio of EC50 for HIV-1 harboring reverse transcriptase Y188L mutant to EC50 for wild type HIV-1 NL4-3; type: functional
[12] = tested on: Human immunodeficiency virus 1; assay: Resistance index, ratio of EC50 for HIV-1 harboring reverse transcriptase K103N mutant to EC50 for wild type HIV-1 NL4-3; type: functional
[13] = tested on: Human immunodeficiency virus 1; assay: Resistance index, ratio of ID50 for recombinant HIV-1 His-tagged reverse transcriptase p66/p51 K103N mutant to ID50 for recombinant wild type HIV-1 reverse transcriptase His-tagged p66/p51
[14] = tested on: Human immunodeficiency virus 1; assay: Resistance index, ratio of ID50 for recombinant HIV-1 His-tagged reverse transcriptase p66/p51 Y181I mutant to ID50 for recombinant wild type HIV-1 reverse transcriptase His-tagged p66/p51
[15] = tested on: Human immunodeficiency virus 1; assay: Resistance index, ratio of ID50 for recombinant HIV-1 His-tagged reverse transcriptase p66/p51 L100I mutant to ID50 for recombinant wild type HIV-1 reverse transcriptase His-tagged p66/p51
[16] = tested on: Human immunodeficiency virus type 1 reverse transcriptase (Human immunodeficiency virus 1), Q72547 [Y181I]

SMILES	selectivity ratio [1]	CC50 at 120 h [2]	pEC50 [3]	ID50 [4]	ID50 [5]	ID50 [6]	pEC50 [7]	pEC50 [8]	pEC50 [9]	Ratio EC50 [10]	Ratio EC50 [11]	Ratio EC50 [12]	Ratio [13]	Ratio [14]	Ratio [15]	ID50 [16]
Cc1c(C(C)c2c(F)cccc2F)nc(SC(C)C)[nH]c1=O (stereo unspecified)	> 3000	> 3000 nM	–	–	–	–	–	–	–	–	–	–	–	–	–	–
CCC(c1nc(SC2CCCC2)[nH]c(=O)c1C)c1c(F)cccc1Cl (stereo unspecified)	> 5	> 3000 nM	< 5.52	4 nM	340 nM	68 nM	–	–	–	–	–	–	–	–	–	–
COC(c1nc(NC2CCCC2)[nH]c(=O)c1C)c1c(F)cccc1Cl (stereo unspecified)	10000	70300 nM	6.77	40 nM	120 nM	1100 nM	8.15	6.41	5.43	56	529	24	3	37	27	1500 nM
CCC(c1nc(SC(C)C)[nH]c(=O)c1C)c1c(F)cccc1Cl (stereo unspecified)	> 36	> 3000 nM	< 5.52	6 nM	420 nM	120 nM	–	–	–	–	–	–	–	–	–	–
CCCN(C)c1nc([C@H](OC)c2c(Cl)cccc2Cl)c(C)c(=O)[nH]1	162000	65000 nM	8.70	8 nM	16 nM	150 nM	9.40	8.52	8.05	7	22	5	2	42	19	340 nM
CCC(C)Sc1nc(C(OC)c2c(Cl)cccc2Cl)c(C)c(=O)[nH]1 (stereo unspecified)	36400	32800 nM	6.11	15 nM	3700 nM	5200 nM	9.05	5.55	5.24	3111	6444	856	247	–	347	> 40000 nM
CCCN(C)c1nc([C@@H](OC)c2c(Cl)cccc2Cl)c(C)c(=O)[nH]1	3010	45200 nM	6.73	177 nM	438 nM	4300 nM	7.82	6.73	6.42	12	25	12	2	49	24	8700 nM
COC(c1nc(SC(C)C)[nH]c(=O)c1C)c1c(Cl)cccc1Cl (stereo unspecified)	12900	51700 nM	5.72	59 nM	9300 nM	7900 nM	8.40	5.49	5.14	800	1800	475	158	–	134	> 40000 nM
CO[C@H](c1nc(SC(C)C)[nH]c(=O)c1C)c1c(F)cccc1Cl	> 1160	> 40500 nM	6.42	77 nM	950 nM	12300 nM	7.46	5.87	5.42	–	75	–	12	75	160	5800 nM
CCC(C)Sc1nc(C(CC)c2c(F)cccc2Cl)c(C)c(=O)[nH]1 (stereo unspecified)	> 56	> 3000 nM	< 5.52	2 nM	450 nM	120 nM	–	–	–	–	–	–	–	–	–	–
COC(c1nc(SC2CCCC2)[nH]c(=O)c1C)c1c(Cl)cccc1Cl (stereo unspecified)	3660	29300 nM	5.54	95 nM	12400 nM	8400 nM	8.10	5.40	5.14	500	900	362	131	–	88	> 40000 nM
CCCN(C)c1nc(C(OC)c2c(F)cccc2F)c(C)c(=O)[nH]1 (stereo unspecified)	> 15600	> 77800 nM	7.51	35 nM	150 nM	1400 nM	8.30	6.74	6.64	20	26	–	4	34	40	1200 nM
Cc1c([C@@H](C)c2c(F)cccc2F)nc(SC2CCCC2)[nH]c1=O	3240	35600 nM	6.55	155 nM	540 nM	2700 nM	7.96	5.89	5.09	116	745	26	3	31	17	4800 nM
CCCNc1nc(C(OC)c2c(F)cccc2Cl)c(C)c(=O)[nH]1 (stereo unspecified)	8600	77400 nM	6.82	65 nM	540 nM	1700 nM	8.05	6.03	5.30	104	555	17	8	43	–	2800 nM
Cc1c([C@H](C)c2c(F)cccc2F)nc(SC2CCCC2)[nH]c1=O	185000	55600 nM	9.00	5 nM	10 nM	90 nM	9.52	7.96	6.85	37	467	3	2	30	18	150 nM
CCCNc1nc(C(OC)c2c(Cl)cccc2Cl)c(C)c(=O)[nH]1 (stereo unspecified)	3280	49200 nM	6.68	120 nM	1600 nM	2200 nM	7.82	5.77	5.12	113	507	14	13	31	18	3700 nM
COC(c1nc(NC(C)C)[nH]c(=O)c1C)c1c(F)cccc1Cl (stereo unspecified)	> 2670	> 77400 nM	6.21	110 nM	1600 nM	1900 nM	7.54	5.85	5.07	48	293	21	14	29	17	3200 nM
CCCN(C)c1nc(C(OC)c2c(F)cccc2Cl)c(C)c(=O)[nH]1 (stereo unspecified)	> 18500	> 74100 nM	7.92	26 nM	288 nM	950 nM	8.40	7.01	6.92	24	30	3	–	42	36	1100 nM
